Earlier results on three substances are cited in patent US20230056788A1, “METHODS AND COMPOSITIONS FOR THE INHIBITION OF HEPATITIS B AND HEPATITIS D VIRUS INFECTIONS” (priority 2020, published 2023).

Series [1] has as its system HBV.
Series [2] relates to HBV. The following applies: HBeAg positive and negative chronic infection and HBV/HDV co-infection.

In the oligonucleotide strings, read from the 5' end, every base follows the letter of its sugar. An asterisk marks phosphorothioate; unmarked linkages are phosphodiester. Other units and linkages are bracketed, terminal groups are in braces. A string of capitals states the bases alone. [5mC] = 5-methylcytosine; m = 2'-O-methyl

On to “(2′OMeA, 2′OMe-5-MeC)10 (mA*m[5mC]*mA*m[5mC]*mA*m[5mC]*mA*m[5mC]*mA*m[5mC]*mA*m[5mC]*mA*m[5mC]*mA*m[5mC]*mA*m[5mC]*mA*m[5mC]; further chemistry not fully specified) [REP 2179, phosphorothioate 20mer counterpart of REP 2139]”, for which the antiviral activity entry in the series with HBV [1] is “(hydrophobic, inactive”.

For “(2′OMeA, 2′OMe-5-MeC)20 (mA*m[5mC]*mA*m[5mC]*mA*m[5mC]*mA*m[5mC]*mA*m[5mC]*mA*m[5mC]*mA*m[5mC]*mA*m[5mC]*mA*m[5mC]*mA*m[5mC]*mA*m[5mC]*mA*m[5mC]*mA*m[5mC]*mA*m[5mC]*mA*m[5mC]*mA*m[5mC]*mA*m[5mC]*mA*m[5mC]*mA*m[5mC]*mA*m[5mC]; further chemistry not fully specified) [REP 2139]”, in the series with HBV [2], the “activity against infections with multiple HBV genotypes” value is “potently active”. For “(2′OMeA, 2′OMe-5-MeC)20 (mAm[5mC]mAm[5mC]mAm[5mC]mAm[5mC]mAm[5mC]mAm[5mC]mAm[5mC]mAm[5mC]mAm[5mC]mAm[5mC]mAm[5mC]mAm[5mC]mAm[5mC]mAm[5mC]mAm[5mC]mAm[5mC]mAm[5mC]mAm[5mC]mAm[5mC]mAm[5mC]; further chemistry not fully specified) [REP 2147, non phosphorothioated (phosphodiester) counterpart of REP 2139]”, in the series with HBV [1], the antiviral activity entry is “inactive”.
